Test results published in patent publication US11083725B2 (priority 2014, dated 2021).

System: NHBE cells
Test: Biolog metabolic array: substrate use by NHBE cells with or without CA09 infection
Format: cell-based, human
Conditions: for Substrate use, 590 nm absorbance normalized to zero hour, 0 hr: Biolog PMM2, 0 hr; for Substrate use, 590 nm absorbance normalized to zero hour, 1 hr: Biolog PMM2, 1 hr; for Substrate use, 590 nm absorbance normalized to zero hour, 5 hr: Biolog PMM2, 5 hr; for Substrate use, 590 nm absorbance normalized to zero hour, 7 hr: Biolog PMM2, 7 hr
[1] = Control (uninfected) NHBE cells
[2] = Virus (CA09, MOI 1) infected NHBE cells
[3] = Virus (CA09-infected, MOI 1) NHBE cells
[4] = Virus (CA09-infected NHBE cells, MOI 1)
[5] = Virus: CA09-infected NHBE cells, MOI 1, Biolog PMM2

Structure (SMILES)	590 nm absorbance normalized to zero hour (substrate use), 0 hr [1]	590 nm absorbance normalized to zero hour (substrate use), 1 hr [1]	590 nm absorbance normalized to zero hour (substrate use), 2 hr [1]	590 nm absorbance normalized to zero hour (substrate use), 3 hr [1]	590 nm absorbance normalized to zero hour (substrate use), 4 hr [1]	590 nm absorbance normalized to zero hour (substrate use), 6 hr [1]	590 nm absorbance normalized to zero hour (substrate use), 8 hr [1]	590 nm absorbance normalized to zero hour (substrate use), 9 hr [1]	590 nm absorbance normalized to zero hour (substrate use), 10 hr [1]	590 nm absorbance normalized to zero hour (substrate use), 11 hr [1]	Substrate use, 590 nm absorbance normalized to zero hour, 0 hr [1]	Substrate use, 590 nm absorbance normalized to zero hour, 1 hr [1]	Substrate use, 590 nm absorbance normalized to zero hour, 5 hr [1]	Substrate use, 590 nm absorbance normalized to zero hour, 7 hr [1]	590 nm absorbance normalized to zero hour (substrate use), 0 hr [5]	590 nm absorbance normalized to zero hour (substrate use), 1 hr [5]	590 nm absorbance normalized to zero hour (substrate use), 2 hr [5]	590 nm absorbance normalized to zero hour (substrate use), 3 hr [5]	590 nm absorbance normalized to zero hour (substrate use), 4 hr [5]	590 nm absorbance normalized to zero hour (substrate use), 5 hr [5]	other results
OC[C@H]1O[C@H](OCC2O[C@@H](O)[C@H](O)[C@@H](O)[C@@H]2O)[C@H](O)[C@@H](O)[C@H]1O (stereo partly drawn) [D-Melibiose]	1.00	0.88	1.14	1.40	1.44	1.81	1.80	2.05	2.19	1.80	1.00	0.88	1.69	1.88							Substrate use, 590 nm absorbance normalized to zero hour, 0 hr [2]: 1.00; Substrate use, 590 nm absorbance normalized to zero hour, 1 hr [2]: 3.65; Substrate use, 590 nm absorbance normalized to zero hour, 5 hr [2]: 3.62; Substrate use, 590 nm absorbance normalized to zero hour, 7 hr [2]: 3.59; 590 nm absorbance normalized to zero hour (substrate use), 0 hr [3]: 1.00; 590 nm absorbance normalized to zero hour (substrate use), 1 hr [3]: 3.65; 590 nm absorbance normalized to zero hour (substrate use), 2 hr [3]: 3.76; 590 nm absorbance normalized to zero hour (substrate use), 3 hr [3]: 3.77; 590 nm absorbance normalized to zero hour (substrate use), 4 hr [3]: 3.78; 590 nm absorbance normalized to zero hour (substrate use), 6 hr [3]: 3.58; 590 nm absorbance normalized to zero hour (substrate use), 8 hr [3]: 3.20; 590 nm absorbance normalized to zero hour (substrate use), 9 hr [3]: 1.54; 590 nm absorbance normalized to zero hour (substrate use), 10 hr [3]: 1.54; 590 nm absorbance normalized to zero hour (substrate use), 11 hr [3]: 1.63
O=C(O)C(O)C(O)C(=O)O (stereo not shown) [m-Tartaric Acid]	1.00	1.39	1.72	2.14	2.16	3.24	2.82	2.95	2.65	2.75	1.00	1.39	2.42	2.70	1.00	1.50	1.66	1.90	1.96	2.05	590 nm absorbance normalized to zero hour (substrate use), 0 hr [4]: 1.00; 590 nm absorbance normalized to zero hour (substrate use), 1 hr [4]: 1.50; 590 nm absorbance normalized to zero hour (substrate use), 2 hr [4]: 1.66; 590 nm absorbance normalized to zero hour (substrate use), 3 hr [4]: 1.90; 590 nm absorbance normalized to zero hour (substrate use), 4 hr [4]: 1.96; 590 nm absorbance normalized to zero hour (substrate use), 5 hr [4]: 2.05; 590 nm absorbance normalized to zero hour (substrate use), 6 hr [4]: 2.17; 590 nm absorbance normalized to zero hour (substrate use), 7 hr [4]: 2.23; 590 nm absorbance normalized to zero hour (substrate use), 8 hr [4]: 2.28; 590 nm absorbance normalized to zero hour (substrate use), 9 hr [4]: 2.43; 590 nm absorbance normalized to zero hour (substrate use), 10 hr [4]: 2.40; 590 nm absorbance normalized to zero hour (substrate use), 11 hr [4]: 2.41; 590 nm absorbance normalized to zero hour (substrate use), 6 hr [5]: 2.17; 590 nm absorbance normalized to zero hour (substrate use), 7 hr [5]: 2.23; 590 nm absorbance normalized to zero hour (substrate use), 8 hr [5]: 2.28; 590 nm absorbance normalized to zero hour (substrate use), 9 hr [5]: 2.43; 590 nm absorbance normalized to zero hour (substrate use), 10 hr [5]: 2.40; 590 nm absorbance normalized to zero hour (substrate use), 11 hr [5]: 2.41
O=C(CO)[C@@H](O)[C@H](O)[C@@H](O)CO [L-Sorbose]	1.00	1.57	2.05	2.28	2.38	4.12	2.81	2.80	3.02	2.98	1.00	1.57	2.79	2.84	1.00	0.18	0.23	0.26	0.28	0.32	590 nm absorbance normalized to zero hour (substrate use), 0 hr [4]: 1.00; 590 nm absorbance normalized to zero hour (substrate use), 1 hr [4]: 0.18; 590 nm absorbance normalized to zero hour (substrate use), 2 hr [4]: 0.23; 590 nm absorbance normalized to zero hour (substrate use), 3 hr [4]: 0.26; 590 nm absorbance normalized to zero hour (substrate use), 4 hr [4]: 0.28; 590 nm absorbance normalized to zero hour (substrate use), 5 hr [4]: 0.32; 590 nm absorbance normalized to zero hour (substrate use), 6 hr [4]: 0.34; 590 nm absorbance normalized to zero hour (substrate use), 7 hr [4]: 0.37; 590 nm absorbance normalized to zero hour (substrate use), 8 hr [4]: 0.38; 590 nm absorbance normalized to zero hour (substrate use), 9 hr [4]: 0.41; 590 nm absorbance normalized to zero hour (substrate use), 10 hr [4]: 0.41; 590 nm absorbance normalized to zero hour (substrate use), 11 hr [4]: 0.48; 590 nm absorbance normalized to zero hour (substrate use), 6 hr [5]: 0.34; 590 nm absorbance normalized to zero hour (substrate use), 7 hr [5]: 0.37; 590 nm absorbance normalized to zero hour (substrate use), 8 hr [5]: 0.38; 590 nm absorbance normalized to zero hour (substrate use), 9 hr [5]: 0.41; 590 nm absorbance normalized to zero hour (substrate use), 10 hr [5]: 0.41; 590 nm absorbance normalized to zero hour (substrate use), 11 hr [5]: 0.48
CC(O)CO (stereo not shown) [1,2-Propanediol]	1.00	1.28	1.41	1.17	1.19	0.68	1.12	1.22	1.15	1.18	1.00	1.28	1.27	1.17	1.00	1.95	2.44	2.83	2.94	3.29	590 nm absorbance normalized to zero hour (substrate use), 0 hr [3]: 1.00; 590 nm absorbance normalized to zero hour (substrate use), 1 hr [3]: 1.95; 590 nm absorbance normalized to zero hour (substrate use), 2 hr [3]: 2.44; 590 nm absorbance normalized to zero hour (substrate use), 3 hr [3]: 2.83; 590 nm absorbance normalized to zero hour (substrate use), 4 hr [3]: 2.94; 590 nm absorbance normalized to zero hour (substrate use), 5 hr [3]: 3.29; 590 nm absorbance normalized to zero hour (substrate use), 6 hr [3]: 3.55; 590 nm absorbance normalized to zero hour (substrate use), 7 hr [3]: 3.75; 590 nm absorbance normalized to zero hour (substrate use), 8 hr [3]: 3.87; 590 nm absorbance normalized to zero hour (substrate use), 9 hr [3]: 4.24; 590 nm absorbance normalized to zero hour (substrate use), 10 hr [3]: 4.34; 590 nm absorbance normalized to zero hour (substrate use), 11 hr [3]: 4.75; 590 nm absorbance normalized to zero hour (substrate use), 6 hr [5]: 3.55; 590 nm absorbance normalized to zero hour (substrate use), 7 hr [5]: 3.75; 590 nm absorbance normalized to zero hour (substrate use), 8 hr [5]: 3.87; 590 nm absorbance normalized to zero hour (substrate use), 9 hr [5]: 4.24; 590 nm absorbance normalized to zero hour (substrate use), 10 hr [5]: 4.34; 590 nm absorbance normalized to zero hour (substrate use), 11 hr [5]: 4.75
